Source: PMC9571608, “Detection of Bitterness in Vitamins Is Mediated by the Activation of Bitter Taste Receptors” (Nutrients, 2022)
Values joined by “and” are separate entries in the source; they are usually repeats but may differ in a detail not shown here. Equal entries are not always repeated. Structures can show the parent of a compound that is named as a salt. Where two headings read alike, the source gives them in different places.

Assays:
TAS2R38 = molecular target: T1, TAS2R38 (Homo sapiens, UniProt P59533); experiment: Calcium mobilization assay, cells transiently expressing TAS2R38; format: cell-based; on TAS2R Receptor 38 response: key: +: positive responses (lines with background color)
T1 construct: expressed in transfected cells; host or cells: HEK293T cells stably expressing Gα16gust44
T1 sequence (P59533 1-333): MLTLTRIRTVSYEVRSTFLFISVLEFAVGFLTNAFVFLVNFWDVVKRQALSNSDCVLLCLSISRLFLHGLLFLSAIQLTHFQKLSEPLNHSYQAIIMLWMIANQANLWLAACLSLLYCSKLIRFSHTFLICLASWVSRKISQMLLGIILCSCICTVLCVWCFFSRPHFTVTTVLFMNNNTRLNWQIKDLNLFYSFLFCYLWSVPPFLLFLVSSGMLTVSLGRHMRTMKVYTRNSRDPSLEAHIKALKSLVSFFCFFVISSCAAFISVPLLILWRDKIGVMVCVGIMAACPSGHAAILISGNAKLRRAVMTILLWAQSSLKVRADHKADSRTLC
Procedure: (§1) A functional expression study was carried out as described previously. TAS2R expression vectors (pcDNA5FRT-SST3-TAS2R-HSV and pEAK-10-SST3-TAS2RHSV) were kindly provided by Wolfgang Meyerhof (German Institute of Human Nutrition Postdam-Rehbruecke, Nuthetal, Germany). For all constructs, the N-terminus contained the first 45 amino acids of rat somatostatin 3 (SST3) to improve membrane targeting. A sequence coding for a herpes simplex virus glycoprotein D epitope (HSV-tag) was added at the C-terminus to allow immunocytochemical detection of the receptor [13, 14, 23, 24]. HEK293T cells stably expressing the chimeric G protein α subunit Gα16gust44 [25, 26] were seeded into poly-D-lysine-coated 96-well black plates (0.35 × 10^5 cells/well) in high-glucose DMEM supplemented with 2 mM GlutaMAX, 10% dialysed fetal bovine serum penicillin/streptomycin, and G418 (400 µg/mL), and then placed under a humidified and controlled atmosphere (37 °C and 6.3% CO2) overnight. […]
(§2) Approximately 24–26 h after transfection, cells were loaded for 1 h at 37 °C with Fluo4-AM (2 µM, Molecular Probes), which had been previously mixed with pluronic acid F-127 (0.01%) in C1 buffer (130 mM NaCl, 5 mM KCl, 10 mM HEPES, 2 mM CaCl2, 10 mM pyruvic acid, pH 7.4, 300 mOsm) containing 2.5 mM probenecid (Life Technologies). […] The calcium signal was recorded for 90 s after injection of a range of compounds using a Flexstation 3 fluorometric imaging plate reader (Molecular Devices) at a wavelength of 510 nm after excitation at 488 nm. All substance concentrations were measured in triplicate in at least three independent experiments. […]
(§3) To obtain a dose–response curve, the ratio between the maximum variation in fluorescence after ligand addition and the initial fluorescence before addition (ΔF/F0) was calculated for each well. The fluorescence signals collected for each replicate were averaged for the same substance concentration, and the fluorescence changes in the corresponding mock-transfected cells were subtracted. […]

TAS2R1 [1] = molecular target: T2, TAS2R1 (Homo sapiens, UniProt Q9NYW7)
Procedure: as §1, §2, §3

TAS2R39 [2] = molecular target: T3, TAS2R39 (Homo sapiens, UniProt P59534); conditions: vitamin B1 as thiamine hydrochloride, up to M.A.C 1 mM
Procedure: as §1, §2, §3

25 human TAS2Rs = experiment: Taste receptor functional assay, panel of 25 human TAS2Rs; format: cell-based; conditions: lowest concentration that could elicit TAS2R activation
Procedure: A functional expression study was carried out as described previously. TAS2R expression vectors (pcDNA5FRT-SST3-TAS2R-HSV and pEAK-10-SST3-TAS2RHSV) were kindly provided by Wolfgang Meyerhof (German Institute of Human Nutrition Postdam-Rehbruecke, Nuthetal, Germany). For all constructs, the N-terminus contained the first 45 amino acids of rat somatostatin 3 (SST3) to improve membrane targeting. A sequence coding for a herpes simplex virus glycoprotein D epitope (HSV-tag) was added at the C-terminus to allow immunocytochemical detection of the receptor [13, 14, 23, 24]. […]
as §2

[3] = tested on: human bitter taste detection (sensory panel); experiment: Human bitter taste detection threshold, three-alternative forced choice (3-AFC), BET method; format: in vivo; conditions: 32 panelists, group BET
Source text: Based on bibliographic studies, preliminary works performed in the laboratory, and the results of taste receptor functional assays, the following vitamins were included in this study: vitamin B1 (thiamine hydrochloride), vitamin B2 (riboflavin phosphate), vitamin B3 (niacinamide), and vitamin B6 (pyridoxine hydrochloride). These vitamins are present in high quantities in nutritional supplements, safe for humans (except at very high concentrations), and can induce a strong bitter taste. These concentrations were determined according to the toxicity threshold of each compound tested and the maximum daily reference intake. These compounds were prepared in commercial mineral water (Evian®, Evian, France).
The threshold values for bitter taste detection were determined by 32 panelists (18–65 years old, 14 males and 18 females, without sensory perception disorders, food allergies, drug treatments, or heart, lung, or cardiac pathologies) who were recruited from Dijon (France) and the surrounding areas. An ethical committee approved this study (Personal Protection Committee of Rennes—Ouest V, protocol code 2018A01342-53), and all panelists signed an informed consent form. A sensory test called three-alternative forced choice (3-AFC) was used in accordance with the protocol detailed in NF ISO 13301. Before performing the measurement sessions, four training sessions were provided to familiarize the panelists with the bitter taste, test procedure, and signal acquisition software. In this discriminative test, six series consisting of three samples, which were each encoded using randomly generated three-digit numbers, were simultaneously delivered to the panelists. The six 3-AFC presentations contained two blank samples (commercial mineral water, manufacturer: Evian, France) and ascending concentrations of vitamin solution. Before the test, subjects were advised that each presentation consisted of two samples that contained only water and one sample that contained a taste. For each 3-AFC presentation, subjects were asked to take the samples sequentially from left to right. Then, they placed the entirety of each sample solution in their mouths and carefully gargled to ensure that the solution was dispersed throughout the mouth. A sip-and-spit procedure was used; subjects rinsed their mouths with commercial mineral water between each series of tests. Subjects were asked to indicate which of the samples contained the stimulus. If a subject perceived no difference between the three samples, he or she was asked to choose one (forced choice). The sensory tests were conducted in a room devoted to sensory evaluation. For the case of colored samples, black-colored glasses were used, and tastings were performed under red light. […] The aim of this sensory analysis was to determine the bitter taste detection threshold for these vitamins and not an olfactory detection threshold. Therefore, the measurements were conducted using pinched nose clips. The subjects waited one minute between each series and had to thoroughly rinse their mouths. Four repetitions were performed per subject for each vitamin to obtain statistically interpretable results, which represented a total of 288 samples. During the sensory analysis session, a bitterness detection threshold of only two vitamins was used (36 samples) to avoid the ingestion of a high vitamin quantity, which is potentially harmful. The answers from the panelists were collected using software dedicated to sensory analysis (FIZZ acquisition V.2.51 software).
The best estimate threshold (BET) method was used to determine the bitter detection threshold for four vitamins. The individual best-estimated detection threshold (BET) was proposed in ASTM E679-04. ASTM E679-04 is a standard practice for the determination of odor and taste thresholds via a forced-choice ascending concentration series method of limits. […]

TAS2R1 [4] = molecular target: T2, TAS2R1; conditions: cited from earlier work
TAS2R7 [5] = molecular target: T4, TAS2R7 (Homo sapiens, UniProt Q9NYW3); conditions: cited from earlier work
T4 sequence (Q9NYW3 1-318): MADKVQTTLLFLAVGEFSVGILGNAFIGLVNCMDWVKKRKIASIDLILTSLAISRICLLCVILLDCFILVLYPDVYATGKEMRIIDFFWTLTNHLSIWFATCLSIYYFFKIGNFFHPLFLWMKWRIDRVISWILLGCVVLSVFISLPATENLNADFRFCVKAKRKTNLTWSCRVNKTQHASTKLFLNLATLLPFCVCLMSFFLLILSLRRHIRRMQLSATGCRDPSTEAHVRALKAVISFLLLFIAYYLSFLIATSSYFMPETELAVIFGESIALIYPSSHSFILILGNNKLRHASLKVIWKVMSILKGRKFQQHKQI

TAS2R39 [6] = molecular target: T3, TAS2R39; conditions: cited from earlier work
TAS2R7 [7] = molecular target: T4, TAS2R7; experiment: Calcium mobilization assay, cells transiently expressing TAS2R7; format: cell-based; parameters: expressed in transfected cells; host or cells: HEK293T cells stably expressing Gα16gust44; conditions: vitamin B1 as thiamine hydrochloride, up to M.A.C 1 mM
Procedure: A functional expression study was carried out as described previously. TAS2R expression vectors (pcDNA5FRT-SST3-TAS2R-HSV and pEAK-10-SST3-TAS2RHSV) were kindly provided by Wolfgang Meyerhof (German Institute of Human Nutrition Postdam-Rehbruecke, Nuthetal, Germany). For all constructs, the N-terminus contained the first 45 amino acids of rat somatostatin 3 (SST3) to improve membrane targeting. A sequence coding for a herpes simplex virus glycoprotein D epitope (HSV-tag) was added at the C-terminus to allow immunocytochemical detection of the receptor [13, 14, 23, 24]. HEK293T cells stably expressing the chimeric G protein α subunit Gα16gust44 [25, 26] were seeded into poly-D-lysine-coated 96-well black plates (0.35 × 10^5 cells/well) in high-glucose DMEM supplemented with 2 mM GlutaMAX, 10% dialysed fetal bovine serum penicillin/streptomycin, and G418 (400 µg/mL), and then placed under a humidified and controlled atmosphere (37 °C and 6.3% CO2) overnight. After 24–26 h of incubation, cells were transiently transfected with TAS2R expression plasmids (120 ng/well) using Lipofectamine 2000 reagent (0.4 µL/well) (Thermo Fisher Scientific, Illkirch-Graffenstaden, France).
Approximately 24–26 h after transfection, cells were loaded for 1 h at 37 °C with Fluo4-AM (2 µM, Molecular Probes), which had been previously mixed with pluronic acid F-127 (0.01%) in C1 buffer (130 mM NaCl, 5 mM KCl, 10 mM HEPES, 2 mM CaCl2, 10 mM pyruvic acid, pH 7.4, 300 mOsm) containing 2.5 mM probenecid (Life Technologies). Approximately one hour after loading, the plate was rinsed twice with 100 µL of C1 buffer. The calcium signal was recorded for 90 s after injection of a range of compounds using a Flexstation 3 fluorometric imaging plate reader (Molecular Devices) at a wavelength of 510 nm after excitation at 488 nm. All substance concentrations were measured in triplicate in at least three independent experiments. As cell transfection and substances can interfere with cellular viability and calcium assays, all compounds were tested on mock-transfected cells (cells transfected with empty vectors) on the same plates for all substance concentrations used.
To obtain a dose–response curve, the ratio between the maximum variation in fluorescence after ligand addition and the initial fluorescence before addition (ΔF/F0) was calculated for each well. The fluorescence signals collected for each replicate were averaged for the same substance concentration, and the fluorescence changes in the corresponding mock-transfected cells were subtracted. […] The dose–response data were fitted, and EC50 values were calculated using a four-parameter logistic equation using SigmaPlot software (Systat Software, San Jose, CA, USA). […]

[8] = HEK293T-Gα16gust44 cells, calcium signal, up to M.A.C

T2 sequence (Q9NYW7 whole entry): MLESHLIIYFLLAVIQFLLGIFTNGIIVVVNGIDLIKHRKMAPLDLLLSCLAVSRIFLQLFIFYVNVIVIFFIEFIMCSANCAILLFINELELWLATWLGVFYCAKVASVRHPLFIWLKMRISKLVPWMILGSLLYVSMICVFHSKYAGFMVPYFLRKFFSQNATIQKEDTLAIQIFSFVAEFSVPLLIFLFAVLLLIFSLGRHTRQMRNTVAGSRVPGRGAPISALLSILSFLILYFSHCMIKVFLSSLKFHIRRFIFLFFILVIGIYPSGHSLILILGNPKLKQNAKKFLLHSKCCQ
T3 sequence (P59534 whole entry): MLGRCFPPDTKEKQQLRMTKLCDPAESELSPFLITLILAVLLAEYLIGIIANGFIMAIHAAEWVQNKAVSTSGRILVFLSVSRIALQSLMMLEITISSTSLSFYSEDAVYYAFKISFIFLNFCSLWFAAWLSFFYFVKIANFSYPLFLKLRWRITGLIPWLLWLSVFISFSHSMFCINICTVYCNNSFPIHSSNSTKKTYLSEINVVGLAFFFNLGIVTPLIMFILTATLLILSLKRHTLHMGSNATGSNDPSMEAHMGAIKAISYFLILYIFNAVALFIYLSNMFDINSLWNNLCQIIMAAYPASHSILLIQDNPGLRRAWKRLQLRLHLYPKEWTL

SMILES	TAS2R38 activation (TAS2R38; 1 mM)	TAS2R Receptor 38 response (TAS2R38; [8])	EC50 (TAS2R38; TAS2R38-expressing HEK293T cells, Fluo-4 calcium response, read-out: EC50 (half-maximal TAS2R38 activation))	TAS2R1 activation (TAS2R1 [1]; 0.1 mM)	TAS2R Receptor 1 response (TAS2R1 [1]; [8])	TAS2R39 activation (TAS2R39 [2])	Cellular Bitter Taste Detection Threshold (25 human TAS2Rs)	Human Bitter Taste Detection Threshold ([3]; Figure 3, aqueous solution)	Human Bitter Taste Detection Threshold ([3]; aqueous solution (mineral water), nose clips, listed as B1)	Human Bitter Taste Detection Threshold ([3]; aqueous solution (mineral water), nose clips, listed as vitamin B1)	TAS2R1 activation (TAS2R1 [4])	TAS2R7 activation (TAS2R7 [5])	TAS2R39 activation (TAS2R39 [6])	TAS2R7 activation (TAS2R7 [7])	Human Bitter Taste Detection Threshold ([3]; aqueous solution (mineral water), nose clips)
CC1=C(/C=C/C(C)=C/C=C/C(C)=C/C=O)C(C)(C)CCC1 [Vitamin A, retinal]	strongly activate	+	290 ± 200 µM	–	–	–	–	–	–	–	–	–	–	–	–
Cc1ncc(C[n+]2csc(CCO)c2C)c(N)n1 [Vitamin B1, thiamine hydrochloride]	–	–	–	activation	+	unable to demonstrate the activation	0.1 mM and 0.10 mM	1.1 mM	1.10 mM	1.1 mM	activation	activation	activation	unable to demonstrate the activation	–
Cc1cc2nc3c(=O)[nH]c(=O)nc-3n(C[C@H](O)[C@H](O)[C@H](O)COP(=O)(O)O)c2cc1C [Vitamin B2, riboflavin phosphate]	–	–	–	–	–	–	–	0.65 mM	–	–	–	–	–	–	0.65 mM
